Results as given in publication PMC5209733, “U24 from Roseolovirus interacts strongly with Nedd4 WW Domains” (Scientific Reports, 2017).
No end group written: not given here.

Columns and labels:
Assay type in all cases: binding
hNedd4-WW3* = biological target: T1, hNedd4-WW3* (Homo sapiens, UniProt P46934); assay: Isothermal titration calorimetry, hNedd4-WW3*; conditions: ITC, 25 °C, 10 mM sodium phosphate, pH 7.4; mean of three separate runs ± one SD
T1 construct: The DNA fragment of the third WW domain of both proteins was amplified; GST (N, cleaved yes); made in house; host or cells: E. coli BL21(DE3)
T1 sequence (P46934 840-873 limits assumed): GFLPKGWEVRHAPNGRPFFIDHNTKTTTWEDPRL
Experimental: (§1) In order to compare the affinities between the U24 proteins and WW domains, the equilibrium dissociation constant (KD) for the interaction between each U24:Nedd4-WW domain pair tested above was determined using ITC. […] ITC experiments using these peptides as titrants were carried out on Nedd4-WW domains in 10 mM sodium phosphate, pH 7.4, at 25 °C. Control experiments in which the phosphate buffer was titrated into the protein solutions were also conducted to ensure the proteins were stable during the titration with peptide.
(§2) Two cDNA clones containing human E3 ubiquitin-protein ligase Nedd4 (KIAA0093) and Nedd4-like protein (KIAA0439) were ordered from Kazusa DNA research institute (Chiba, Japan). The DNA fragment of the third WW domain of both proteins was amplified and inserted into BamHI and XhoI sites of pGEX-4T2 vector (GE Healthcare). […]
(§3) After overnight dialysis, the cleaved Nedd4 WW domains in phosphate buffer, with different salt concentrations, were ready for use in ITC experiments. […] The concentration of the sample was determined by the absorbance at 280 nm in 6 M Guanidine HCl on a UV-Vis spectrophotometer, and calculated using the theoretical extinction coefficient obtained from the ProtParam tool[51]. […] The peptide amounts were determined gravimetrically and calibrated according to the absorbance at 280 nm in 6 M Guanidine HCl. […]

rNedd4-WW3/4 = biological target: T2, rNedd4-WW3/4 (Rattus norvegicus, UniProt Q62940); assay: Isothermal titration calorimetry, rNedd4-WW3/4; conditions: ITC, 25 °C, 10 mM sodium phosphate
T2 construct: GST fusion proteins of the second and third WW domains (WW2 and WW3/4) of rNedd4; GST (N, cleaved yes); made in house; host or cells: E. coli BL21(DE3)
T2 sequence (Q62940 459-492 limits assumed): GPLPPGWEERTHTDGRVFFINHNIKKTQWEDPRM
Experimental: as §1
Importantly, this is the tightest affinity characterized to date between a U24 peptide ligand and WW domains.
In order to find out whether electrostatic interactions play a role in the binding of the three U24 peptides tested here to the Nedd4-WW domains, a set of ITC experiments were performed as a function of increasing salt concentration, 0 mM, 100 mM and 500 mM, in 10 mM sodium phosphate, pH 7.4, at 25 °C, for rNedd4-WW3/4 and hNedd4L-WW3*. Affinities and molar binding enthalpies (ΔH) for each U24:WW-domain pair as a function of salt concentration are plotted in Supplementary Fig. 2 and Fig. 3c and d, respectively.
(§4) Two cDNA clones containing human E3 ubiquitin-protein ligase Nedd4 (KIAA0093) and Nedd4-like protein (KIAA0439) were ordered from Kazusa DNA research institute (Chiba, Japan). The DNA fragment of the third WW domain of both proteins was amplified and inserted into BamHI and XhoI sites of pGEX-4T2 vector (GE Healthcare). The plasmids containing GST fusion proteins of the second and third WW domains (WW2 and WW3/4) of rNedd4 were kind gifts from Dr. Julie D. Forman-Kay (Hospital for Sick Children, Toronto). All plasmids were transformed into E. coli BL21(DE3) for expression at 25 °C for 16 hours using a final concentration of 400 μM IPTG. ^15N labelled protein was expressed in M9 media supplemented with ^15N labelled NH4Cl. The cells were harvested by centrifugation and stored in the −80 °C freezer until further use. The cell paste from approximately 600 mL culture was thawed on ice and resuspended in 10 mL PBS supplemented with 1% Triton X-100 (PBS/Triton buffer). Lysozyme, protease inhibitor and DNAse were added in the mixture. The mixture was incubated on ice for half an hour, then was lysed in an ice bath by sonication. After being centrifuged at 9,000 rpm for 1 hour, the supernatant was filtered using a 0.45 μm filter, and then applied to 2 mL of PBS washed Glutathione Sepharose 4B resin (GE Healthcare, GST 4B resin). The resin slurry with cell lysate was incubated for 2 hours at room temperature, and then washed with PBS/Triton buffer six times. The resin was collected by centrifugation at 600 × g for 5 minutes.
In order to obtain WW domains without the GST tag, the proteins were extracted and immobilized on GST 4B resin as described above. The resin was washed three times with PBS buffer, after the washing with PBS/Triton buffer. 3 mL PBS buffer and 150 units of thrombin (GE Healthcare) were added into the pelleted resin and the slurry was incubated at room temperature for 16 hours. The supernatant containing cleaved WW domains were collected on the second day by centrifugation. The residual thrombin in this fraction was removed using p-Aminobenzamidine-agarose (Sigma-Aldrich) and fresh GST 4B resin was used to remove the GST contaminants. The WW domain containing fraction was dialyzed at 4 °C against 2 L phosphate buffer (10 mM sodium phosphate, pH 7.4) using 2,000 MWCO dialysis membrane overnight for ITC or NMR experiments, or phosphate buffer with various salt concentrations (phosphate buffer with 100 mM or 500 mM NaCl) for ITC experiments.
After overnight dialysis, the cleaved Nedd4 WW domains in phosphate buffer, with different salt concentrations, were ready for use in ITC experiments. The dialysis buffer was kept as a sample-free buffer to measure the heats of dilution. […]

rNedd4-WW2 = biological target: T3, rNedd4-WW2 (Rattus norvegicus, UniProt Q62940); assay: Isothermal titration calorimetry, rNedd4-WW2; conditions: ITC, 25 °C, 10 mM sodium phosphate, pH 7.4; mean of three separate runs ± one SD
T3 construct: GST fusion proteins of the second and third WW domains (WW2 and WW3/4) of rNedd4; GST (N, cleaved yes); made in house; host or cells: E. coli BL21(DE3)
T3 sequence (Q62940 402-435 limits assumed): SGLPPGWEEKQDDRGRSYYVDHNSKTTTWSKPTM
Experimental: as §1, §2, §3

hNedd4L-WW3* = biological target: T4, hNedd4L-WW3* (Homo sapiens, UniProt Q96PU5); assay: Isothermal titration calorimetry, hNedd4L-WW3*; conditions: ITC, 25 °C, 10 mM sodium phosphate
T4 construct: The DNA fragment of the third WW domain of both proteins was amplified; GST (N, cleaved yes); made in house; host or cells: E. coli BL21(DE3)
T4 sequence (Q96PU5 497-530 limits assumed): as the sequence (P46934 840-873 limits assumed) above, with G1S, K5P, V9M, H11I counted along it
Experimental: as §1
In order to find out whether electrostatic interactions play a role in the binding of the three U24 peptides tested here to the Nedd4-WW domains, a set of ITC experiments were performed as a function of increasing salt concentration, 0 mM, 100 mM and 500 mM, in 10 mM sodium phosphate, pH 7.4, at 25 °C, for rNedd4-WW3/4 and hNedd4L-WW3*.
as §4
In order to obtain WW domains without the GST tag, the proteins were extracted and immobilized on GST 4B resin as described above. The resin was washed three times with PBS buffer, after the washing with PBS/Triton buffer. […]
After overnight dialysis, the cleaved Nedd4 WW domains in phosphate buffer, with different salt concentrations, were ready for use in ITC experiments. […]

[1] = pH 7.4, extra 100 mM NaCl, three runs
[2] = pH 7.4, extra 500 mM NaCl, three runs
[3] = pH 7.4, mean of three separate runs ± one SD

**Q.** Which Kd (hNedd4-WW3*) does the source give for MTHETPPPSYNDVML [U24-7] here?
**A.** 1.98 ± 0.04 µM

**Q.** What about the Kd (rNedd4-WW3/4; [1]) of the same compound?
**A.** 14.6 µM

**Q.** What about the Kd (rNedd4-WW3/4; [2]) of the same compound?
**A.** 13.2 µM

**Q.** What about the Kd (rNedd4-WW3/4; [3]) of the same compound?
**A.** 21 ± 0.5 µM

**Q.** And the Kd (rNedd4-WW2)?
**A.** 87 ± 5 µM

**Q.** With `CSCC[C@H](N)C(=O)N[C@@H](CC(=O)O)C(=O)N1CCC[C@H]1C(=O)N1CCC[C@H]1C(=O)N[C@@H](CCCNC(=N)N)C(=O)N[C@H](C(=O)N1CCC[C@H]1C(=O)N1CCC[C@H]1C(=O)N1CCC[C@H]1C(=O)N[C@@H](CO)C(=O)N[C@@H](Cc1ccc(O)cc1)C(=O)N[C@@H](CO)C(=O)N[C@@H](CCC(=O)O)C(=O)N[C@H](C(=O)N[C@@H](CC(C)C)C(=O)O)C(C)C)[C@@H](C)OP(=O)(O)O` [pU24-6A] as the compound, how does the Kd (rNedd4-WW3/4; [1]) read?
**A.** 12 µM

**Q.** And the Kd (rNedd4-WW3/4; [2])?
**A.** 9.5 µM

**Q.** For “IKHEPENPPPYEEAM [Nogo-A, reference compound]”, which Kd (hNedd4L-WW3*; [3]) is on record?
**A.** 4 ± 0.2 µM

**Q.** How did the Kd (hNedd4L-WW3*; [1]) turn out when `CSCC[C@H](N)C(=O)N[C@@H](CC(=O)O)C(=O)N1CCC[C@H]1C(=O)N1CCC[C@H]1C(=O)N[C@@H](CCCNC(=N)N)C(=O)N[C@H](C(=O)N1CCC[C@H]1C(=O)N1CCC[C@H]1C(=O)N1CCC[C@H]1C(=O)N[C@@H](CO)C(=O)N[C@@H](Cc1ccc(O)cc1)C(=O)N[C@@H](CO)C(=O)N[C@@H](CCC(=O)O)C(=O)N[C@H](C(=O)N[C@@H](CC(C)C)C(=O)O)C(C)C)[C@@H](C)O` [U24-6A] was run?
**A.** 6.9 µM

**Q.** What about the Kd (hNedd4L-WW3*; [2]) of the same compound?
**A.** 6.1 µM

**Q.** What about the Kd (hNedd4L-WW3*; [3]) of the same compound?
**A.** 6.3 ± 0.3 µM

**Q.** And the Kd (hNedd4-WW3*)?
**A.** 9.7 ± 0.2 µM

**Q.** And the Kd (rNedd4-WW3/4; [1])?
**A.** 35.7 µM

**Q.** And the Kd (rNedd4-WW3/4; [2])?
**A.** 30.6 µM

**Q.** What about the Kd (rNedd4-WW2) of the same compound?
**A.** 155 ± 12 µM
